From patent US12484583B2 (priority 2019, dated 2025) come the findings set out here.

The test system of one experiment is Fusarium culmorum. The conditions noted are these: in vivo.
In a further experiment the test system is Rhizoctonia. To be noted: in vivo.

As to `O=[N+]([O-])NC1=NCCN1Cc1ccc(Cl)nc1` [Imidacloprid, N-[1-[(6-chloropyridin-3-yl)methyl]-4,5-dihydroimidazol-2-yl]nitramide], in the experiment with Fusarium culmorum, the “fungicidal activity of the insecticide by itself” value was “does not have fungicidal activity by itself” and the “stimulation of the fungicidal action of natamycin” value is on record as “stimulates the fungicidal action of natamycin on seeds of different plants”.

abamectin: in the experiment with Rhizoctonia, the “fungicidal activity of the insecticide by itself” value was “does not have fungicidal by itself” and the “stimulation of the fungicidal action of natamycin” value is “stimulates the fungicidal action of natamycin against different fungal pathogens on seeds”.
